Reference: patent publication US11110114B2, “Dinucleotides” (OXFORD UNIVERSITY INNOVATION LIMITED, priority 2017, dated 2021)
Read-outs that look alike come from different tables or passages of the source. In the oligonucleotide strings, read from the 5' end, every base follows the letter of its sugar. An asterisk marks phosphorothioate; unmarked linkages are phosphodiester. Other units and linkages are bracketed, terminal groups are in braces. A string of capitals states the bases alone. [tz] = triazole internucleoside linkage; l = locked nucleic acid (LNA); [5mC] = 5-methylcytosine; d = 2'-deoxy (DNA)

Legend:
Type in all cases: binding
[1] = tested on: RNA Target 3′-rGAG UGM UAG ACG A; test: Mismatch discrimination by UV melting (Table 3)
Description: (§1) UV DNA melting curves were recorded in a Cary 4000 Scan UV-Visible Spectrophotometer using 3 μM of each oligonucleotide in a 10 mM phosphate buffer containing 200 mM NaCl at pH 7.0. Samples were annealed by heating to 85° C. (10° C./min) and then slowly cooling to 20° C. (1° C./min). As these six successive cycles (heating and cooling) were performed at a gradient of 1° C./min, the change in UV absorbance at 260 nm was recorded. The melting temperature was calculated from the 1st derivative of the melting curve using in built software.

[2] = tested on: DNA target 5′-dGCT GCA GGC GTC G (SEQ ID NO: 35); conditions: for Tm DNA target: pH 7
[3] = tested on: RNA target 5′-rGCU GCA GGC GUC G (SEQ ID NO: 36); conditions: for Tm RNA target: pH 7
[4] = tested on: DNA target: 5′-dGCT GGA GAG GTC G (SEQ ID NO: 39)
[5] = tested on: RNA Target 3′-rGCUGCGMACGUCG; test: Mismatch discrimination by UV melting, single triazole linkage MeC-T step (Table 6)
[6] = tested on: DNA target: 5′-dGCT GCA AGC GTC G (SEQ ID NO: 48); test: UV melting, single triazole linkage, DNA target (Table 8)
[7] = tested on: RNA target: 5′-rGCU GCA AGC GUC G (SEQ ID NO: 49); test: UV melting, single triazole linkage, RNA target (Table 8)
[8] = tested on: DNA target; 5′-dGCT AGA GAA GTC G (SEQ ID NO: 52); test: UV melting, two triazole linkages, DNA target (Table 9); conditions: two MeC-T steps
Description: as §1
(§2) Next, oligonucleotides incorporating two triazole inter-nucleotide linkage steps were prepared by templated CuAAC click ligation reactions in the presence of a complementary splint. The ligated oligonucleotides were purified by denaturating 20% polyacrylamide gel electrophoresis and were evaluated for their binding affinity for complementary DNA/RNA strands (Table 9). […] When compared to unmodified ON7, a drop of only 0.8° C./modification was observed (ON8, RNA target). […] Since the improvement in binding affinity is specific for DNA:RNA hybrids, triazole-linked LNA could find use in selective probes for RNA targeting.

[9] = tested on: RNA target; 5′-rGCU AGA GAA GUC G (SEQ ID NO: 18); test: UV melting, two triazole linkages, RNA target (Table 9); conditions: for TM RNA TARGET: two MeC-T steps
Description: as §1, §2

[10] = fully matched RNA target (M = A)
[11] = mismatch M = C, relative to the fully matched duplex (M = A)
[12] = mismatch M = G, relative to the fully matched duplex (M = A)
[13] = mismatch M = U, relative to the fully matched duplex (M = A)
[14] = 10 mM phosphate, 200 mM NaCl, pH 7.0, 3.0 μM each strand
[15] = relative to the unmodified duplex (ON1)

## 5′-CTC ACT ATC TG^MeCT (DNA dCdTdCdAdCdTdAdTdCdTdGd[5mC]dT) [ON100, reference compound]
[1]; [10]
  TM M = A: 54.8 °C
[1]; mismatch RNA target M = U, change in Tm relative to the fully matched duplex (M = A)
  ΔTM U: -11.3

## 5′-d CGACG^MeCp^MeCTGCAGC (DNA dCdGdAdCdGd[5mC]d[5mC]dTdGdCdAdGdC) [ON33, reference compound]
[2]
  Tm DNA target: 68.7 °C
[3]
  Tm RNA target: 69.1 °C

## 5′-d CGACG^MeCp^MeC^LTGCAGC (DNA dCdGdAdCdGd[5mC]l[5mC]dTdGdCdAdGdC) [ON34, reference compound]
[2]
  ΔTm DNA target: +3.3
  Tm DNA target: 72 °C
[3]
  ΔTm RNA target: +5.6
  Tm RNA target: 74.7 °C

## 5′-d CGACG^MeCt^MeCTGCAGC (DNA dCdGdAdCdGd[5mC][tz]d[5mC]dTdGdCdAdGdC) [ON12]
[2]
  ΔTm DNA target: -6.4
  Tm DNA target: 62 °C
[3]
  ΔTm RNA target: -5.8
  Tm RNA target: 63.4 °C

## 5′-dCGACG^MeCt^MeC^LTGCAGC (DNA dCdGdAdCdGd[5mC][tz]l[5mC]dTdGdCdAdGdC) [ON11]
[2]
  ΔTm DNA target: -5.1
  Tm DNA target: 63.5 °C
[3]
  ΔTm RNA target: -0.5
  Tm RNA target: 68.6 °C

## 5′-dCGA^MeCp^MeCTCT^MeCp^MeCAGC (DNA dCdGdAd[5mC]d[5mC]dTdCdTd[5mC]d[5mC]dAdGdC) [ON35, reference compound]
[4]
  Tm DNA target: 66.6 °C

## 5′-dCGA^MeCp^MeC^LTCT^MeCp^MeC^LAGC [ON36, reference compound]
[4]
  Tm DNA target: 72.2 °C
  ΔTm/mod DNA target: +2.8

## 5′-dCGA^MeCt^MeCTCT^MeCt^MeCAGC [ON14]
[4]
  Tm DNA target: 51.9 °C
  ΔTm/mod DNA target: -7.3

## 5′-dCGA^MeCt^MeC^LTCT^MeCt^MeC^LAGC [ON13]
[4]
  Tm DNA target: 56.4 °C
  ΔTm/mod DNA target: -5.1

## CGACG^MeCTTGCAGC (dCdGdAdCdGd[5mC]dTdTdGdCdAdGdC) [ON1, unmodified 13-mer, reference compound]
[5]; [10]
  TM M = A: 62.8 °C
[5]; [11]
  ΔTM C: -16.3
[5]; [12]
  ΔTM G: -3.9
[5]; [13]
  ΔTM U: -13.7
[6]; [14]
  TM DNA TARGET: 64.2 °C
[7]; [14]
  TM RNA TARGET: 62.8 °C

## CGACG^MeCT^LTGCAGC (DNA dCdGdAdCdGd[5mC]lTdTdGdCdAdGdC) [ON4, reference compound]
[5]
  TM M = A: 68.9 °C
  ΔTM C: -15.2
  ΔTM G: -4.8
  ΔTM U: -13.7
[6]
  ΔTM DNA TARGET: 3.3 °C
[6]; pH 7
  TM DNA TARGET: 67.5 °C
[7]
  ΔTM RNA TARGET: 6.1 °C
[7]; pH 7
  TM RNA TARGET: 68.9 °C

## CGACG^MeC^LtTTGCAGC (dCdGdAdCdGl[5mC][tz]dTdTdGdCdAdGdC) [ON5, LNA on the 5′-side of the triazole]
[6]; [14]
  TM DNA TARGET: 52.7 °C
[6]; [15]
  ΔTM DNA TARGET: -11.5 °C
[7]; [14]
  TM RNA TARGET: 55.5 °C
[7]; DNA:RNA hybrids or DNA duplexes (Table 8)
  additional stabilising effect of LNA on the 5′-side of the triazole: no significant additional stabilising effect
[7]; [15]
  ΔTM RNA TARGET: -7.2 °C

## CGACG^MeC^LtT^LTGCAGC (DNA dCdGdAdCdGl[5mC][tz]lTdTdGdCdAdGdC) [ON6]
[6]
  ΔTM DNA TARGET: -5.8
[6]; pH 7
  TM DNA TARGET: 58.4 °C
[7]
  additional stabilising effect of LNA on the 5′-side of the triazole: no significant additional stabilising effect
  ΔTM RNA TARGET: +0.1
[7]; pH 7
  TM RNA TARGET: 62.9 °C

## CGACG^MeCtTTGCAGC [ON3]
[5]; [10]
  TM M = A: 56.6 °C
[5]; [11]
  ΔTM C: -16.1
[5]; [12]
  ΔTM G: -2.2
[5]; [13]
  ΔTM U: -12.9
[6]; [14]
  TM DNA TARGET: 55.3 °C
[6]; [15]
  ΔTM DNA TARGET: -8.9 °C
[7]; [14]
  TM RNA TARGET: 56.6 °C
[7]; [15]
  ΔTM RNA TARGET: -6.2 °C

## CGACG^MeCtT^LTGCAGC (DNA dCdGdAdCdGd[5mC][tz]lTdTdGdCdAdGdC) [ON2]
[5]
  TM M = A: 62 °C
  ΔTM C: -15.6
  ΔTM G: -3.3
  ΔTM U: -13.4
[6]
  increase in thermal stability compared to the duplex containing only the triazole linkage: 2.9
  ΔTM DNA TARGET: −6.0
[6]; pH 7
  TM DNA TARGET: 58.2 °C
[7]
  increase in Tm relative to the duplex with only the triazole linkage: 5.4
  ΔTM RNA TARGET: −0.8
[7]; pH 7
  TM RNA TARGET: 62 °C

## CGA^MeCTTCT^MeCTAGC (dCdGdAd[5mC]dTdTdCdTd[5mC]dTdAdGdC) [ON7, unmodified 13-mer, reference compound]
[8]
  TM DNA TARGET: 57.1 °C
[9]
  TM RNA TARGET: 58.8 °C

## CGA^MeCT^LTCT^MeCT^LAGC (dCdGdAd[5mC]lTdTdCdTd[5mC]lTdAdGdC) [ON10, two LNA, no triazole, reference compound]
[8]
  TM DNA TARGET: 62.2 °C
[9]
  TM RNA TARGET: 70.0 °C

## CGA^MeCtTTCT^MeCtTAGC [ON9]
[8]
  TM DNA TARGET: 42.3 °C
[9]
  TM RNA TARGET: 47.1 °C

## CGA^MeCtT^LTCT^MeCtT^LAGC [ON8]
[8]
  TM DNA TARGET: 48.0 °C
[9]; RNA target
  drop in Tm compared to unmodified ON7: 0.8 °C/modification
[9]; RNA target, compare ON8 and ON9
  increase in Tm relative to oligonucleotides with two triazole linkages without 3′-LNA: 5.0 °C/modification
[9]
  TM RNA TARGET: 57.1 °C
